From ChEMBL document CHEMBL1139598, “A discriminant model constructed by the support vector machine method for HERG potassium channel inhibitors” (Bioorg Med Chem Lett, 2005)

Target: Voltage-gated inwardly rectifying potassium channel KCNH2 (Homo sapiens, UniProt Q12809)
Assay: Inhibitory concentration against potassium channel HERG

Chain of Voltage-gated inwardly rectifying potassium channel KCNH2 (Q12809 whole entry): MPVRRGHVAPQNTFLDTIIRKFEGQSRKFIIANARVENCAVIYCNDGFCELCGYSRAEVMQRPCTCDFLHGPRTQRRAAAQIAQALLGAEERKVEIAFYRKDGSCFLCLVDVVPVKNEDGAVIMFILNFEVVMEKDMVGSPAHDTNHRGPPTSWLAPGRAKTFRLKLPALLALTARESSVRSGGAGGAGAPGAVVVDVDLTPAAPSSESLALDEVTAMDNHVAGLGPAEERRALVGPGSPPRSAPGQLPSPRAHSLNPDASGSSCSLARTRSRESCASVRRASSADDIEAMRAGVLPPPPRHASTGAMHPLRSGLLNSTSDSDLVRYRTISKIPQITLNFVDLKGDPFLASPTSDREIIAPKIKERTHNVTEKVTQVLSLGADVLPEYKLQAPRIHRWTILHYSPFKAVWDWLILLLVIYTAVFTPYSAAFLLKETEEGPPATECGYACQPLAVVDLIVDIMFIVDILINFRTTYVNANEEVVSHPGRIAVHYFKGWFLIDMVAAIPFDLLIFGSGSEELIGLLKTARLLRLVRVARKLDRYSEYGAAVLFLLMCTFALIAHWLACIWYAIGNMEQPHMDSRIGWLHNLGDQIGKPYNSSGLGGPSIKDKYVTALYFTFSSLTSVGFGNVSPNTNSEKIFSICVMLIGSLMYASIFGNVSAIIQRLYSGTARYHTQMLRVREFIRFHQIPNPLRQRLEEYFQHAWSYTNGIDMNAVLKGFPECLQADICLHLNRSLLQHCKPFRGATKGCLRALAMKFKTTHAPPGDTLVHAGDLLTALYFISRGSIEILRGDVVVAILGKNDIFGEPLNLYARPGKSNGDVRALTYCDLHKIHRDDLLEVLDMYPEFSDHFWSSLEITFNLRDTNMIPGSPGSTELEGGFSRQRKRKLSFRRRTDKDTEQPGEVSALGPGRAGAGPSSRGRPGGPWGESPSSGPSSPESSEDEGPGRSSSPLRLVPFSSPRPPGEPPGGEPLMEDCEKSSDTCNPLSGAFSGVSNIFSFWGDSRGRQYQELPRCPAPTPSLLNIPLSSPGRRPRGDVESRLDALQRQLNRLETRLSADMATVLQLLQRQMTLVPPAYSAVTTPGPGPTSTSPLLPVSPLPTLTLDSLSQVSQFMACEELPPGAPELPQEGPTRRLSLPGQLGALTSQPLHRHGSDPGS

`COc1ccc2c3c1O[C@H]1[C@@H](O)C=C[C@H]4[C@@H](C2)N(C)CC[C@@]341` [CODEINE] showed an IC50 of 302 µM.
With `CC[C@H](OC(C)=O)C(C[C@H](C)N(C)C)(c1ccccc1)c1ccccc1` [LEVOMETHADYL ACETATE] the IC50 was 2.19 µM.
For `CCC(=O)C(CC(C)N(C)C)(c1ccccc1)c1ccccc1` (centres undefined) [METHADONE], the IC50 was 9.77 µM.
With `COc1cc2nc(N3CCN(C(=O)c4ccco4)CC3)nc(N)c2cc1OC` [PRAZOSIN] the IC50 was 1.58 µM.
